{"source": "patent US9358096B2", "about": "“Methods of treatment with drug eluting stents with prolonged local elution profiles with high local concentrations and low systemic concentrations” (Abbott Laboratories, priority 2007, dated 2016)", "origin": "cited, not measured here", "key": {"[1]": {"details": "cited from earlier work"}, "[2]": {"details": "kidney transplant recipients; usual oral dose of sirolimus of 2 mg per day; cited from earlier work"}}, "data": [{"compound": "CO[C@H]1C[C@@H]2CC[C@@H](C)[C@@](O)(O2)C(=O)C(=O)N2CCCC[C@H]2C(=O)O[C@H]([C@H](C)C[C@@H]2CC[C@@H](O)[C@H](OC)C2)CC(=O)[C@H](C)/C=C(\\C)[C@@H](O)[C@@H](OC)C(=O)[C@H](C)C[C@H](C)/C=C/C=C/C=C/1C", "note": "[sirolimus]", "values": [{"measurement": "peak concentration of sirolimus, one patient", "setting": "[1]; after receiving three 80 mm stents configured as stent 1", "result": 35.5, "unit": "ng/mL"}, {"measurement": "mean systemic sirolimus concentration", "setting": "[1]; patients treated with stent 1, one hour after stenting", "result": "20.4 ± 10.0", "unit": "ng/mL"}, {"measurement": "trough concentration", "setting": "[2]", "result": 9, "unit": "ng/mL"}]}]}
